Experimental data from patent publication US20120071537A1, “New Oral Formulation” (priority 1998, published 2012).

What was measured:
[1] = system: rectal afferents; assay: Single unit activity of rectal afferent fibres during barostat-controlled rectal distension in decerebrate cats; assay type: in vivo; conditions: i.v., incremental doses from 0.15 to 1.2 mg/kg
Procedure: Decerebrate, anaesthesia-free cats under continuous monitoring of blood pressure are paralysed by alcuronium chloride dissolved in rheomacrodex i.v. (200 μg/kg initially and supplementary doses of 100 μg/kg, if necessary), and artificially ventilated. Single unit activity of afferent fibres are recorded in a monopolar fashion from peripheral endings of centrally cut filaments of sacral dorsal roots. Tension receptors are identified by probing of their receptive fields in the wall of the mobilised rectum. Thereafter, the response of the units to barostat-controlled rectal ramp-distension is determined. The quantitative response characteristics of the units is evaluated with respect to distension pressure and resulting rectal diameter. Alternatively, the response of the units to pressure-induced peristalsis is measured. After obtaining 2 distension profiles (5 min each) and/or 10 min of peristalsis under control conditions, a 5-HT4 receptor agonist, partial agonist or antagonist, e.g., Compound A, or vehicle is applied i.v. and the protocol is repeated. Subsequently, the activity of additional units is recorded in the presence of a 5-HT4 receptor agonist, partial agonist or antagonist, e.g., Compound A, or vehicle according to the distension/peristalsis protocol. […]

[2] = system: sensory perception of rectal distension; assay: Colonic perfusion manometry with balloon distension, sensation threshold in fasted healthy volunteers; assay type: in vivo; conditions: 2-12 mg p.o., assessed 30 to 90 min after dosing
Procedure: Intraluminal pressures and reflexes in the last 60 cm of the colon of 10 fasted healthy volunteers are measured by means of perfusion manometry. Three latex balloons positioned at 50, 30 and 10 cm, allow volume stimulation. Basal values of colonic intraluminal pressures and reflexes are established. Subsequently, reflex inhibitory relaxations of the internal anal sphincter is triggered by inflating the balloons by 10 ml increments up to a maximum volume of 150 ml. During the inflation phase, two parameters are evaluated: a) the reflux threshold (volume able to induce a substantial pressure decrease of the internal anal sphincter); and b) the sensation threshold (volume able to induce a conscious defecation reflex). After the basal recordings, each subject is given a 5-HT4 receptor agonist, partial agonist or antagonist, e.g., Compound A, p.o. and 30 to 90 min later the colonic intraluminal pressure and reflexes are assessed again by the same method.

[3] = system: equine intestine; assay: Gastro-intestinal motility after colic surgery (post-operative ileus) in horses; assay type: in vivo; conditions: i.v. or i.m., 0.01 to 10 mg/kg every 8 to 24 h
Procedure: 20 horses having colic syndrome are submitted to abdominal surgery. During surgery supportive therapy is applied to them. At the end of surgery, a specific 5-HT4 receptor agonist or partial agonist, e.g., Compound A, is administered i.v. or i.m., e.g. at a dose of from 0.01 to 10 mg/kg. This dose is repeated every 8 to 24 h until spontaneous defecation is observed. Gastro-intestinal motility is evaluated based e.g. on the presence or absence of gastric reflux as determined by nasogastric intubation, occurrence of borborygmi and timing of defecation after the first injection of the test compound.

[4] = Dissolution characteristics of oral tablet composition in water or USP buffers pH 6.8 and 7.5; assay type: physicochemical; conditions: composition comprising Tegaserod
Description: In a further aspect the present invention provides a pharmaceutical oral, e.g., tablet, composition comprising one of the active agents cited above, e.g., a 5-HT4 agonist, partial agonist or antagonist, e.g., Tegaserod, said composition having dissolution characteristics in water or in USP buffers pH 6.8 and 7.5 of
For example a composition according to the invention, e.g., comprising Tegaserod as the active agent, may have dissolution characteristics in water or in USP buffers pH 6.8 and 7.5 of: […]

[5] = Acid sensitivity (degradation under slightly acidic conditions); assay type: physicochemical
Description: Examples of compounds are known in the art and may be ascertained by routine experimentation.
(§1) which is referred hereinafter as Compound A, or a pharmaceutically acceptable salt form thereof, e.g., the hydrogen maleate (hereinafter “hml”) salt.

[6] = Solubility in water; assay type: physicochemical; conditions: at 25° C. in water
Procedure: By “poorly soluble” is meant an active agent having a solubility in aqueous media more than 0.001% and less than 10%, e.g., less than 1%, e.g., less than 0:1%, e.g., less than 0.05%, e.g., less than 0.02%, at room temperature, e.g., 25° C.
as §1

In the case of `CCCCCNC(=N)NN=Cc1c[nH]c2ccc(OC)cc12` [Compound A, 3-(5-methoxy-1H-indol-3-yl-methylene)-N-pentylcarbazimidamide], the “distension pressure at which the most prominent inhibition of firing occurs” value [1] is reported as 50 mmHg, the “dose giving half-maximal reduction of the firing rate of rectal afferents” value [1] is reported as “about 0.7 mg/kg” and the “sensation threshold (volume able to induce a conscious defecation reflex)” value [2] is reported as “significantly reduced”. The “restoration of normal motility function of the equine intestine” value [3] was “effective in restoring normal motility function”, the “amount (percentage) dissolved” value ([4]; time 5 minutes) was 48.9 percentage and the “amount (percentage) dissolved” value ([4]; time 15 minutes) was 95.5 percentage. The “amount (percentage) dissolved” value ([4]; time 30 minutes) was 99.7 percentage, the “amount (percentage) dissolved” value ([4]; time 60 minutes) was 100 percentage and the acid sensitivity [5] was “acid sensitive”. The solubility [6] was “about 0.02%”.
